Laboratory results as given in US20050137176A1, “Use of a steroidal or non-steroidal EcR receptor ligand in a cosmetic or dermatological preparation for maintaining cutaneous homeostasis” (L'OREAL, priority 2003, published 2005).

Experiments:
[1] = system: reconstructed epidermides; experiment: Measurement of the thickness of the epidermis (histology, HES staining, image analysis); assay type: cell-based; conditions: ecdysterone in culture medium of reconstructed epidermes, 7 days
Method: Reconstructed epidermides were prepared according to the technique of Asselineau et al., 1985 (Asselineau D, Bernard B A, Bailly C. & Darmon M: Epidermal morphogenesis and induction of 67 kD Keratin polypeptide by culture at the air liquid interface Exp Cell Res 159: 536-539).
From the first day of exposure to the air/liquid interface, the epidermides were cultured in the presence of ecdysterone in the culture medium (1 to 1000 μg/ml). The epidermes were cultured for 7 days. The treatment was renewed every 48 hours by changing the culture medium. After treatment for 7 days, the epidermes were harvested. The histological analysis is performed after staining with HES (hematoxylin eosin saffron).
Epidermal thickness measurements were performed on histological slices. To do this, 10 measurements are taken on a field. For each sample, 5 fields are counted. These measurements are performed using a Leica Q600S image analysis system with an ×10 objective lens. The mean thickness obtained for each sample corresponds to 50 measurements taken.

[2] = system: keratinocytes derived from a mammoplasty; experiment: Measurement of cell multiplication of keratinocytes (number of cells per flask); assay type: cell-based, human
Method: The keratinocytes are derived from a mammoplasty. These keratinocytes were isolated and then cultured in KGM medium (Clonetics) supplemented with growth factor (EGF (Epidermal Growth Factor): 10 ng/ml, 0.4 μg/ml, insulin 5 μg/ml, BPE (Bovine Pituitary Extract) 4 ml/L). The cells are treated with ecdysterone for 8 hours to 48 hours. There is no EGF in the culture medium during the treatment with ecdysterone. […]

[3] = system: normal human keratinocytes; experiment: Cell cycle analysis (DNA content by flow cytometry); assay type: cell-based; conditions: as a function of the amount of ecdysterone in the keratinocyte culture medium
Method: The cell cycle analysis consists in studying the DNA content of a cell population by flow cytometry. These studies were performed on normal human keratinocytes cultured as a monolayer in a defined medium (KGM-Clonetics).
The keratinocytes are derived from a mammoplasty. These keratinocytes were isolated and then cultured in KGM medium supplemented with growth factors (EGF: 10 ng/ml, 0.4 μg/ml, insulin 5 μg/ml, BPE (Bovine Pituitary Extract) 4 mL).
The cells are treated with ecdysterone for 8 hours to 48 hours. There is no EGF in the culture medium during the treatment with ecdysterone.
Ecdysterone was tested at the following concentrations: 1 μg/ml, 0.1 μg/ml and 0.01 μg/ml.
The protocol followed for the cell cycle analysis in flow cytometry is described in the following publication: Staiano-Coico L., Higgins P. J., Darzynkiewicz Z. et al; 1986 Human keratinocyte culture. Identification and stagind of epidermal cell subpopulations. J. Clin. Invest. 77, 396-404. The analysis was performed using a Facs Calibur 3C Trieur flow cytometer from the company Becton-Dickinson.

[4] = system: MRP8/MRP14 mRNA; experiment: Expression of MRP8/MRP14 messenger RNA in reconstructed epidermides; assay type: cell-based; conditions: treatment for 7 days
Excerpt: (§1) Ecdysterone was applied to the medium of reconstructed epidermides under the same conditions as those of Example 1.
(§2) After treatment for 7 days, the epidermides were harvested.

[5] = system: psoriasin mRNA; experiment: Expression of psoriasin messenger RNA in reconstructed epidermides; assay type: cell-based; conditions: treatment for 7 days
Excerpt: as §1, §2

[6] = system: MRP8 and MRP14; experiment: Protein markers MRP8 and MRP14 by immunofluorescence on histological slices; assay type: cell-based; conditions: reconstructed epidermides, conditions of Example 1
Method: Ecdysterone was added to the medium of reconstructed epidermides under the same conditions as those of Example 1.
The proteins MRP8 and MRP14 are proteins that are strongly expressed in reconstructed skin, in psoriatic skin and by keratinocytes that are hyperproliferative but that have, however, maintained the capacity to differentiate. The analysis of the protein markers MRP8 and MRP14 was performed by immunofluorescence on histological slices.

## CC(C)(O)CC[C@@H](O)[C@](C)(O)[C@H]1CC[C@@]2(O)C3=CC(=O)[C@@H]4C[C@@H](O)[C@@H](O)C[C@]4(C)[C@H]3CC[C@]12C [Ecdysterone, (2b, 3b, 5b,22R)-2,3,14,20,22,25-hexahydroxycholest-7-en-6-one]
[1]
  Parakeratosis or reduction in the thickness of the horny layer: not accompanied by parakeratosis
  Thickness of the epidermis at the level of the live layers: increase in the thickness of the epidermis at the level of the live layers
[2]; 0.001 μg/ml, 16 hours, second series
  No of cells/flask: 3.6 × 10^5 cells/flask
[2]; 0.001 μg/ml, 24 hours, second series
  No of cells/flask: 3.6 × 10^5 cells/flask
[2]; 0.001 μg/ml, 48 hours, second series
  No of cells/flask: 1.6e+06 cells/flask
[2]; 0.01 μg/ml, 16 hours, first series
  No of cells/flask: 0.8 × 10^6 cells/flask
[2]; 0.01 μg/ml, 16 hours, second series
  No of cells/flask: 2.5 × 10^5 cells/flask
[2]; 0.01 μg/ml, 24 hours, first series
  No of cells/flask: 1.0 × 10^6 cells/flask
[2]; 0.01 μg/ml, 24 hours, second series
  No of cells/flask: 5.7 × 10^5 cells/flask
[2]; 0.01 μg/ml, 48 hours, second series
  No of cells/flask: 1.6 × 10^6 cells/flask
[2]; 0.1 μg/ml, 8 hours, first series
  No of cells/flask: 0.8 × 10^6 cells/flask
[2]; 0.1 μg/ml, 16 hours, first series
  No of cells/flask: 1.0 × 10^6 cells/flask
[2]; 0.1 μg/ml, 16 hours, second series
  No of cells/flask: 3.6 × 10^5 cells/flask
[2]; 0.1 μg/ml, 24 hours, first series
  No of cells/flask: 1.1 × 10^6 cells/flask
[2]; 0.1 μg/ml, 24 hours, second series
  No of cells/flask: 5.2 × 10^5 cells/flask
[2]; 0.1 μg/ml, 48 hours, second series
  No of cells/flask: 1.5 × 10^6 cells/flask
[2]; 1 μg/ml, 8 hours, first series
  No of cells/flask: 0.7 × 10^6 cells/flask
[2]; 1 μg/ml, 16 hours, first series
  No of cells/flask: 0.5 × 10^6 cells/flask
[2]; 1 μg/ml, 24 hours, first series
  No of cells/flask: 1.1 × 10^6 cells/flask
[2]; after treatment for 48 hours
  Number of cells relative to the control cells: no significant increase in the number of cells
[3]
  Phases of the cell cycle (cell population between G0/G1 and G2/M): change in the cell population between the phases G0/G1 and G2/M
[4]
  Reduction of the expression of MRP8/MRP14 mRNA (factor): 1.7
[5]
  Reduction of the expression of psoriasin mRNA (factor): 3.5
[6]
  Expression of the proteins MRP8 and MRP14 on histological slices: restricts the expression of MRP8 and MRP14 to the upper layers of the epidermis
